According to US11980613B2, “Methods for reversing HIV latency using BAF complex modulating compounds” (priority 2018, dated 2024):

How the values were obtained:
[1] = tested on: human primary CD4+ T cells; assay: T cell activation markers CD25 and CD69; type: cell-based; conditions: 24 and 72 hours; two healthy donors
Procedure: 24. Activation markers, apoptosis and viability of primary CD4+ T cells: Activation markers, namely CD25 and CD69 were analyzed as described previously^55. Briefly, CD4+ T cells were treated with DMSO, compound, or PMA/Ionomycin for 24 and 72 hours. Cells were collected, washed with PBS and stained for 30 min at 4° C. with α-CD25-APC (17-0259-42, eBioscience) and α-CD69-FITC (11-0699-42, eBioscience). Following two washes with PBS, cells were fixed with 1% HCHO at 4° C. and analyzed by flow cytometry with Becton Dickinson Fortessa instrument. To determine percent of apoptotic cells after treatment cells were stimulated for 24 and 72 hours and stained with anti-AnnexinV-PE (BD Biosciences, cat. 556454) in the presence of 2.5 mM CaCl2 for 20 min at 4° C. Cells were analyzed by Becton Dickinson Fortessa flow cytometer. Data represents the average of six experiments performed on cells from different healthy donors. Viability of ex-vivo infected primary CD4+ cells was determined by flow cytometry on the basis of forward versus side scatter analysis. 25. FAIRE: FAIRE experiment was performed as described, with minor modifications^55. Eighteen hours prior to analysis, J-Lat 11.1 cells were treated with BAFi's where indicated. Cells were fixed for 10 min by adding formaldehyde to a final concentration of 1% at room temperature. Twenty million cells were used per FAIRE experiment. […]

[2] = tested on: Bmi1-luciferase reporter cell line; assay: Bmi1-luciferase reporter assay (screen for inhibitors of BAF-mediated transcriptional repression); type: cell-based, mouse; conditions: grading in words
Procedure: Low passage mESCs from 129 mice (20 million, p10) were electroporated with 40 μg of a linearized construct consisting of 2 kb homology upstream of the Bmi1 locus, firefly luciferase at exon 1 of Bmi1 followed by loxP neo and a 6 kb 3′ homology arm with thymidine kinase outside the homology arms. The cells were plated on 10 gelatin treated plates (60 mm) of irradiated neo resistant MEFs and selected with G418 and ganciclovir for 5 days. 384 colonies were selected, trypsinized and replated in gelatin treated 24-well plates for expansion. The cells were split and DNA was isolated for digestions with EcoRI or BamHI. We confirmed the successful homologous recombination in 7 out 384 colonies using Southern blot analysis at both the 5′ (EcoRI) and 3′ (BamHI) end (see Table S2 of Marian et al., “Small Molecule Targeting of Specific BAF (mSWI/SNF) Complexes for HIV Latency Reversal,” Cell Chem. Biol. (Dec. 20, 2018) 25: 1443-1445). We deleted the neomycin cassette using transfected Cre recombinase and confirmed the excision at all clones using a second round of Southern blot analysis at the 3′ end (BamHI).
3. Compound Treatment: 10,000 cells in 30 μL ESC media were plated in white 384 well CellBind plates. The cells were cultured in a 37° C., 5% CO2 incubator for 24 h and 100 nL/well of 0.75 mM of positive control (Pubchem SID: 85814977) or 100 nL/well of 3.75 mM compound library (primary screen) was added via pin transfer into plates. There was no effect on assay readout at DMSO concentrations up to 0.5%. The cells were cultured in a 37° C., 5% CO2 incubator for 24 h for luciferase reporter assay and 18 h for qRT-PCR assay. 4. Luciferase assay: (PubChem AID 602393 primary, PubChem AID 651717 confirmatory.) The assay plates were removed from the incubator and equilibrates for 10 minutes to room temperature. Promega SteadyGlo® solution (10 μL/well) was added to each well of the assay plates. The assay plates were mixed at 1000 rpm for 15 seconds and then incubated for 10 minutes at room temperature. The luciferase levels were read on a Perkin Elmer Envision in Ultra Sensitive Luminescence mode. Signals remained stable up to 2 hours. 5. EqRT-PCR secondary screen (PubChem AID 743180, 743177, 743176) The qRTPCR screen was performed as published^54. In brief, 5,000 ES cells were plated on gelatin-coated 384-well tissue culture plates and cultured in a 37C, 5% CO2 incubator. 24 h later, hit compounds in 100 nL DMSO were treated at eight different doses. 18 h after compound treatment cells were washed two times with 100 μL PBS and all excess PBS was removed by centrifuging the plates upside down at 1000 rpm. The Ambion® Cells-to-Ct kit was used to generate cDNA. In brief, the cells were lysed in the plate in 10 μL lysis buffer containing DNase for 10 minutes and quenched with 1 μL lysis stop buffer. The lysate (2 μL) was added to 5 μL RT reaction buffer (2×), 2.5 μL nuclease-free water and 0.5 μL Reverse transcriptase (20×) and incubated at 37° C. for 60 minutes and 95° C. for 1 minute to generate 10 μL of cDNA. cDNA (1 μL) was used in each 5 μL qPCR reaction with Roche master mix and TaqMan probes (Applied Biosystems) for Bmi1-FAM (Mm00776122_gH), Ring1a-FAM (Mm01278940_m1/4331182), or Fgf4-FAM (Mm00438916_g1/4351372) alongside actin-VIC (4352341E) for a loading control. The qPCR was run accordingly: 95° C. for 10 minutes Then 55 cycles of: 95° C. for 10 seconds followed by 60° C. for 30 seconds. The fold increase in transcription was calculated using the ΔΔCT method^84. 6. Viability Assays (PubChem AID: 743188, 743189, 743190, 1053139, 1053140, 1053141)

## CO[C@H]1CN(C)C(=O)c2cc(NC(=O)OC(C)C)ccc2OC[C@H](C)N(Cc2ccc(-c3ccccn3)cc2)C[C@@H]1C [BRD-K80443127]
[1]
  CD25 and CD69 expression: no effect
[2]
  activity in the Bmi1 luciferase reporter assays: high activity
